Common to all, as to assay: antimicrobial activity, broth dilution method
Type in all cases: cell-based
In general terms: Dilution methods test growth across graded concentrations, often in twofold steps.

Experiment [1] has as its system Bacillus cereus ATCC 9634. Conditions: Bacillus cereus, ATCC9634, Bacillus cereus ATCC 9634; broth dilution; read-out: minimum inhibitory concentration (MIC). Here is the method:
(§1) Antimicrobial activity of the new antibiotics according to the present invention was measured on various pathogenic microorganisms by the broth dilution mehtod. Tab. […] The new antibiotics show a similar antimicrobial spectrum to that of tylosin as shown in Tab. 4. All the compounds have an excellent antimicrobial activity mainly on gram-positive bacteria. […] Test microorganisms with an asterisk mark (*) in Tab. 4 are all drug-resistant strains that were clinically isolated. More in detail, Staphylococcus aureus MS-8710 is resistant to tylosin, penicillin, tetracycline, erythromycin and leucomycin. Staphylococcus aureus MS-9931 is resistant to tylosin, penicillin, erythromycin, tetracycline, leucomycin, spiramycin and josamycin. And also Streptococcus piogenes is resistant to tylosin, erythromycin, oleandomycin and leucomycin.

In experiment [2] the test system is Staphylococcus aureus MS-9937. As to conditions: MS9937; Staphylococcus aureus MS-9937, drug-resistant clinical isolate; read-out: minimum inhibitory concentration (MIC). Here is the method:
as §1

Experiment [3] concerns Staphylococcus aureus MS-8710. As to conditions: Staphylococcus aureus, MS8710, Staphylococcus aureus MS-8710, drug-resistant clinical isolate; read-out: minimum inhibitory concentration (MIC). Here is the method:
as §1

The subject of experiment [4] is Streptococcus pyogenes MH-771. As to conditions: Streptococcus pyogenes, MH771, Streptococcus pyogenes MH-771, drug-resistant clinical isolate; read-out: minimum inhibitory concentration (MIC). Here is the method: as §1
For a further experiment, the system named is Sarcina lutea ATCC 9341. Conditions: Micrococcus luteus, ATCC9341, Sarcina lutea ATCC 9341, read-out: minimum inhibitory concentration (MIC). On the procedure: as §1
The test system of experiment [5] is Staphylococcus aureus MS-9931. As to conditions: MS9931; Staphylococcus aureus MS-9931, drug-resistant clinical isolate; read-out: minimum inhibitory concentration (MIC). On the procedure: as §1
The subject of experiment [6] is Staphylococcus aureus FDA-209P. Conditions: Staphylococcus aureus, FDA209P, Staphylococcus aureus FDA-209P; broth dilution; read-out: minimum inhibitory concentration (MIC). Here is the method: as §1
The test system of experiment [7] is Staphylococcus aureus SMITH. Conditions: Staphylococcus aureus, Staphylococcus aureus SMITH; broth dilution; read-out: minimum inhibitory concentration (MIC). Here is the method: as §1

For 12 molecules, MIC results are on record in US4205163A, “Tylosin derivatives” (Sanraku-Ocean Co., Ltd., priority 1977, dated 1980).

In brackets after ≈: the same amount, converted by molar mass.

For `CCC1OC(=O)CC(O)C(C)C(OC2OC(C)C(OC3CC(C)(O)C(OC(=O)CCC(C)C)C(C)O3)C(N(C)C)C2O)C(CC=O)CC(C)C(=O)C=CC(C)=CC1COC1OC(C)C(O)C(OC)C1OC` (stereo not drawn) [Compound 11, 4"-iso-caproyl(or iso-hexanoyl)tylosin], the MIC was found to be 0.78 µg/mL (≈ 0.769 µM) in experiment [1]; 12.5 µg/mL (≈ 12.3 µM) in experiment [2]; 12.5 µg/mL (≈ 12.3 µM) in experiment [3]; 6.25 µg/mL (≈ 6.16 µM) in experiment [4]; 0.39 µg/mL (≈ 0.385 µM) with Sarcina lutea ATCC 9341; 12.5 µg/mL (≈ 12.3 µM) in experiment [5]. In addition, the MIC in experiment [6] and in experiment [7] was 0.78 µg/mL (≈ 0.769 µM) throughout.

With `CCC1OC(=O)CC(OC(C)=O)C(C)C(OC2OC(C)C(OC3CC(C)(O)C(O)C(C)O3)C(N(C)C)C2OC(C)=O)C(CC=O)CC(C)C(=O)C=CC(C)=CC1COC1OC(C)C(O)C(OC)C1OC` (stereo not drawn) [3,2'-diacetyltylosin, reference compound], the MIC in experiment [1] was 1.56 µg/mL (≈ 1.56 µM); in experiment [2], 200 µg/mL (≈ 200 µM); in experiment [3] it was more than 200 µg/mL; in experiment [4], more than 200 µg/mL; in the experiment on Sarcina lutea ATCC 9341, 0.39 µg/mL (≈ 0.39 µM); in experiment [5] it was 200 µg/mL (≈ 200 µM). Moreover, the MIC in experiment [6] and in experiment [7] was 1.56 µg/mL (≈ 1.56 µM) in each case.

On to `CCOC(=O)OC1C(C)OC(OCC2C=C(C)C=CC(=O)C(C)CC(CC=O)C(OC3OC(C)C(OC4CC(C)(O)C(O)C(C)O4)C(N(C)C)C3OC(C)=O)C(C)C(OC(C)=O)CC(=O)OC2CC)C(OC)C1OC` (stereo not drawn) [Compound 6, 3,2'-diacetyl-4'"-carboethoxytylosin], for which the MIC in experiment [1] was 0.78 µg/mL (≈ 0.727 µM); in experiment [2], 100 µg/mL (≈ 93.3 µM); in experiment [3], 100 µg/mL (≈ 93.3 µM); in experiment [4] it was 100 µg/mL (≈ 93.3 µM); with Sarcina lutea ATCC 9341, 0.39 µg/mL (≈ 0.364 µM); in experiment [5] it was 100 µg/mL (≈ 93.3 µM). Also, the MIC in experiment [6] and in experiment [7] was 0.78 µg/mL (≈ 0.727 µM) throughout.

`CCC(C(=O)OC1C(C)OC(OC2C(C)OC(OC3C(CC=O)CC(C)C(=O)C=CC(C)=CC(COC4OC(C)C(O)C(OC)C4OC)C(CC)OC(=O)CC(O)C3C)C(O)C2N(C)C)CC1(C)O)c1ccccc1` (stereo not drawn) [Compound 16, 4"-α-phenyl-n-butyryltylosin]: the MIC in experiment [1] was determined as 0.78 µg/mL (≈ 0.734 µM); in experiment [2], 12.5 µg/mL (≈ 11.8 µM); in experiment [3] it was 12.5 µg/mL (≈ 11.8 µM); in experiment [4], 6.25 µg/mL (≈ 5.88 µM); in the experiment with Sarcina lutea ATCC 9341, 0.19 µg/mL (≈ 0.179 µM); in experiment [5], 25 µg/mL (≈ 23.5 µM). Moreover, the MIC in experiment [6] and in experiment [7] was 0.39 µg/mL (≈ 0.367 µM) throughout.

On to `CCC1OC(=O)CC(O)C(C)C(OC2OC(C)C(OC3CC(C)(O)C(OC(=O)Cc4ccc([N+](=O)[O-])cc4)C(C)O3)C(N(C)C)C2O)C(CC=O)CC(C)C(=O)C=CC(C)=CC1COC1OC(C)C(O)C(OC)C1OC` (stereo not drawn) [Compound 14, 4"-(4-nitrophenyl)acetyltylosin], for which the MIC in experiment [1] turned out to be 0.39 µg/mL (≈ 0.361 µM); in experiment [2], 6.25 µg/mL (≈ 5.79 µM); in experiment [3] it was 6.25 µg/mL (≈ 5.79 µM); in experiment [4], 3.13 µg/mL (≈ 2.9 µM); in the experiment with Sarcina lutea ATCC 9341 it was 0.19 µg/mL (≈ 0.176 µM); in experiment [5], 6.25 µg/mL (≈ 5.79 µM). The MIC in experiment [6] and in experiment [7] was 0.39 µg/mL (≈ 0.361 µM) throughout.

Take `CCC1OC(=O)CC(OC(C)=O)C(C)C(OC2OC(C)C(OC3CC(C)(O)C(OC(=O)C(Cc4ccccc4)OC(C)=O)C(C)O3)C(N(C)C)C2O)C(CC=O)CC(C)C(=O)C=CC(C)=CC1COC1OC(C)C(O)C(OC)C1OC` [Compound 27, 3-acetyl-4"-L-[(α-acetoxy-β-phenyl)propionyl]tylosin]: the MIC is 0.78 µg/mL (≈ 0.679 µM) in experiment [1]; 50 µg/mL (≈ 43.5 µM) in experiment [2]; 50 µg/mL (≈ 43.5 µM) in experiment [3]; 25 µg/mL (≈ 21.8 µM) in experiment [4]; 0.39 µg/mL (≈ 0.34 µM) in the experiment with Sarcina lutea ATCC 9341; 50 µg/mL (≈ 43.5 µM) in experiment [5]. For the same molecule, the MIC in experiment [6] and in experiment [7] was 0.78 µg/mL (≈ 0.679 µM) in each case.

Regarding `CCC1OC(=O)CC(OC(C)=O)C(C)C(OC2OC(C)C(OC3CC(C)(O)C(O)C(C)O3)C(N(C)C)C2OC(C)=O)C(CC=O)CC(C)C(=O)C=CC(C)=CC1COC1OC(C)C(OC(=O)C(Cl)(Cl)Cl)C(OC)C1OC` (stereo not drawn) [Compound 4, 3,2'-diacetyl-4'"-trichloroacetyltylosin], the MIC in experiment [1] was 1.56 µg/mL (≈ 1.36 µM); in experiment [2] it was 100 µg/mL (≈ 87.3 µM); in experiment [3] it was 100 µg/mL (≈ 87.3 µM); in experiment [4] it was 100 µg/mL (≈ 87.3 µM); with Sarcina lutea ATCC 9341 it was 0.39 µg/mL (≈ 0.34 µM); in experiment [5] it was 100 µg/mL (≈ 87.3 µM). The MIC in experiment [6] and in experiment [7] was 1.56 µg/mL (≈ 1.36 µM) throughout.

`CCC1OC(=O)CC(OC(C)=O)C(C)C(OC2OC(C)C(OC3CC(C)(O)C(O)C(C)O3)C(N(C)C)C2OC(C)=O)C(CC=O)CC(C)C(=O)C=CC(C)=CC1COC1OC(C)C(OC(=O)CCl)C(OC)C1OC` (stereo not drawn) [Compound 3, 3,2'-diacetyl-4'"-monochloroacetyltylosin]: the MIC turned out to be 1.56 µg/mL (≈ 1.45 µM) in experiment [1]; 100 µg/mL (≈ 92.9 µM) in experiment [2]; 100 µg/mL (≈ 92.9 µM) in experiment [3]; 100 µg/mL (≈ 92.9 µM) in experiment [4]; 0.78 µg/mL (≈ 0.724 µM) in the experiment on Sarcina lutea ATCC 9341; 100 µg/mL (≈ 92.9 µM) in experiment [5]. For the same molecule, the MIC in experiment [6] and in experiment [7] was 1.56 µg/mL (≈ 1.45 µM) each time.

With `CCC1OC(=O)CC(OC(C)=O)C(C)C(OC2OC(C)C(OC3CC(C)(O)C(OC(=O)C(O)Cc4ccccc4)C(C)O3)C(N(C)C)C2O)C(CC=O)CC(C)C(=O)C=CC(C)=CC1COC1OC(C)C(O)C(OC)C1OC` [Compound 26, 3-acetyl-4"-L-[(α-hydroxy-β-phenyl)propionyl]tylosin], the MIC in experiment [1] came to 0.78 µg/mL (≈ 0.705 µM); in experiment [2], 50 µg/mL (≈ 45.2 µM); in experiment [3], 50 µg/mL (≈ 45.2 µM); in experiment [4] it was 12.5 µg/mL (≈ 11.3 µM); in the experiment on Sarcina lutea ATCC 9341, 0.39 µg/mL (≈ 0.353 µM); in experiment [5], 50 µg/mL (≈ 45.2 µM). In addition, the MIC in experiment [6] and in experiment [7] was 0.78 µg/mL (≈ 0.705 µM) in each case.

Consider `CCCCCCCCCC(=O)OC1C(C)OC(OC2C(C)OC(OC3C(CC=O)CC(C)C(=O)C=CC(C)=CC(COC4OC(C)C(O)C(OC)C4OC)C(CC)OC(=O)CC(O)C3C)C(O)C2N(C)C)CC1(C)O` (stereo not drawn) [Compound 10, 4"-n-capryl(or n-decanoyl)tylosin], for which the MIC stood at 1.56 µg/mL (≈ 1.46 µM) in experiment [1]; 100 µg/mL (≈ 93.4 µM) in experiment [2]; 100 µg/mL (≈ 93.4 µM) in experiment [3]; 50 µg/mL (≈ 46.7 µM) in experiment [4]; 0.78 µg/mL (≈ 0.729 µM) in the experiment with Sarcina lutea ATCC 9341; 50 µg/mL (≈ 46.7 µM) in experiment [5]. Besides, the MIC in experiment [6] and in experiment [7] was 1.56 µg/mL (≈ 1.46 µM) throughout.

On to `CCC1OC(=O)CC(O)C(C)C(OC2OC(C)C(OC3CC(C)(O)C(OC(=O)CSc4ccc(Cl)cc4)C(C)O3)C(N(C)C)C2O)C(CC=O)CC(C)C(=O)C=CC(C)=CC1COC1OC(C)C(O)C(OC)C1OC` (stereo not drawn) [Compound 37, 4"-(4-chlorophenyl)thioacetyltylosin], for which the MIC is 0.78 µg/mL (≈ 0.709 µM) in experiment [1]; 6.25 µg/mL (≈ 5.68 µM) in experiment [2]; 12.5 µg/mL (≈ 11.4 µM) in experiment [3]; 3.13 µg/mL (≈ 2.84 µM) in experiment [4]; 0.19 µg/mL (≈ 0.173 µM) in the experiment on Sarcina lutea ATCC 9341; 6.25 µg/mL (≈ 5.68 µM) in experiment [5]. Moreover, the MIC in experiment [6] and in experiment [7] was 0.39 µg/mL (≈ 0.354 µM) in each case.

`CCC1OC(=O)CC(OC(C)=O)C(C)C(OC2OC(C)C(OC3CC(C)(O)C(OC(=O)COc4ccccc4)C(C)O3)C(N(C)C)C2O)C(CC=O)CC(C)C(=O)C=CC(C)=CC1COC1OC(C)C(O)C(OC)C1OC` (stereo not drawn) [Compound 45, 3-acetyl-4"-phenoxyacetyltylosin]: the MIC in experiment [1] turned out to be 0.39 µg/mL (≈ 0.357 µM); in experiment [2] it was 25 µg/mL (≈ 22.9 µM); in experiment [3], 100 µg/mL (≈ 91.6 µM); in experiment [4], 12.5 µg/mL (≈ 11.4 µM); in the experiment on Sarcina lutea ATCC 9341 it was 0.19 µg/mL (≈ 0.174 µM); in experiment [5] it was 25 µg/mL (≈ 22.9 µM). The MIC in experiment [6] and in experiment [7] was 0.39 µg/mL (≈ 0.357 µM) throughout.
